Assay results as given in PMC10619556, “Comprehensive Evaluation System for Post-Metabolic Activity of Potential Thyroid-Disrupting Chemicals” (Journal of Microbiology and Biotechnology, 2023).
Where a name gives a salt, the structure may show the parent alone. Read-outs that look alike come from different tables or passages of the source.

What was measured:
[1] = system: thyroid hormone receptor (THR); test: hTRE_HeLa THR transcriptional activity (nano luciferase reporter) assay with rat liver S9 mixtures; format: cell-based, human; conditions: hTRE_HeLa cells; for THR agonist classification (positive if >= 10% of activity of 100 nM T3): parent, inactive S9, phase I and phase I+II groups, before and after S9 reaction; for THR transcriptional activity after phase I+II reaction: phase I+II group
Method: The hTRE_HeLa cell line, obtained from the MFDS, was used to detect thyroid hormone receptor (THR) agonists through transcriptional activation analysis, utilizing a stably modified thyroid receptor-reactive human cervical cancer cell line along with one plasmid from a nano luciferase reporter. For cell line maintenance, minimum essential media (MEM, Gibco, USA) supplemented with 10% FBS, 1% penicillin/streptomycin (P/S), and 1 ml Hygromycin B (InvivoGen, USA) was used. The hTRE_Hela cell line was conditioned and treated in test medium containing Phenol red free of MEM (Gibco) supplemented with 10% charcoal-stripped FBS (CS-FBS), 1% P/S, and 1 mL Hygromycin B. hTRE_HeLa cells were maintained in 37°C and 5% CO2 incubator. hTRE_HeLa cells were seeded with 5 × 10^3 cells per well in the 96-well plate for 24 h and treated with EDCs and S9 mixtures for 48 h.
The S9 mixture for phase I metabolism was prepared with 0.1 mg/ml rat liver S9, 2 × 10^-3 M NADPH, 3 × 10^-2 M G-6-P, 5 × 10^-2 M MgCl2, and 3 units/ml G-6-PD. For phase I+II metabolism, 2 × 10^-2 M GSH, 5 × 10^-3 M UDPGA, and 2 × 10^-5 M PAPS were additionally included to the S9 mixture. […] The S9 mixtures were added to the aforementioned test medium to be diluted 10 times. After 24 h of seeding, hTRE_HeLa cells were treated with the S9 mixtures pre-incubated for 6 h and EDCs with different concentrations.
The vehicle control (VC) included only 0.145% of DMSO containing 9 × 10^-12 M 9-cis-Retinoic acid. The final volume for each well was 100 μl. […] After treatment, 10 μl of treated medium was transferred to a new plate, to which 40 μl of test medium and 50 μl of Nano-Glo luciferase reagent (Promega, USA) were added. After a 10 min incubation, the luciferase activity was measured using a luminescence reader (Glomax Discover, Promega). For data analysis, relative transcriptional activity (RTA) of PC was set to 100%, and RTA of VCcontrol was set to 0%. The % to PC value of EDCs was calculated to (EDCs – VCtest) / (PC – VCcontrol). The VCtest was set to the VC for each test group. If the EDC was greater than or equal to 10% of PC, the EDC was determined to be a THR agonist-positive chemical. The data were described by the mean ± standard deviation.

[2] = Sprague-Dawley, rat, pH 7.4
[3] = In vitro metabolic reaction using rat liver S9 fraction with LC-MS / GC-MS metabolic profiling; conditions: for Metabollic rate: rat liver S9, phase I+II reaction vs inactivated S9 control, BDE28 and 4,4'-DIDBP by GC-MS, others by LC-MS; for Metabolic rate (parent decreased by) after the reaction: rat liver S9, phase I+II biotransformation
[4] = concentration not given, RTA with 100 nM T3 (PC) = 100%

Ic1ccc(-c2ccc(I)cc2)cc1 [4,4’-DIDBP, 4,4'-diiodobiphenyl]
THR agonist classification (positive if >= 10% of activity of 100 nM T3) [1]: THR agonistic negative
Metabollic rate [2]: 82%

CCCCc1oc2ccccc2c1C(=O)c1cc(I)c(OCCN(CC)CC)c(I)c1 [Amiodarone, amiodarone hydrochloride]
THR agonist classification (positive if >= 10% of activity of 100 nM T3) [1]: THR agonistic negative

Brc1ccc(Oc2ccc(Br)cc2Br)cc1 [BDE28, BDE No. 28]
THR agonist classification (positive if >= 10% of activity of 100 nM T3) [1]: THR agonistic negative
Metabollic rate [3]: 99%

O=C(c1ccc(O)cc1O)c1ccc(O)cc1O [BP-2, 2,2',4,4'-tetrahydroxybenzophenone]
THR agonist classification (positive if >= 10% of activity of 100 nM T3) [1]: THR agonistic negative
Metabollic rate [3]: 11%

CC(C)(c1ccc(O)cc1)c1ccc(O)cc1 [BPA, bisphenol A]
THR agonist classification (positive if >= 10% of activity of 100 nM T3) [1]: THR agonistic negative
Metabollic rate [2]: 52%

Cc1cc(C(C#N)c2ccc(Cl)cc2)c(Cl)cc1NC(=O)c1cc(I)cc(I)c1O (centres unmarked) [Closantel, closantel]
THR agonist classification (positive if >= 10% of activity of 100 nM T3) [1]: THR agonistic negative
Metabollic rate [2]: 49%

O=C(O)CCc1cc(I)c(Oc2ccc(O)cc2)c(I)c1 [DITPA, 3,5-diiodothyropropionic acid]
THR agonist classification (positive if >= 10% of activity of 100 nM T3) [1]: THR agonistic positive
THR transcriptional activity after phase I+II reaction [1, 4]: 30.7 ± 1.8%
Metabolic rate (parent decreased by) after the reaction [3]: 29%

C[C@]12CC[C@@H]3c4ccc(O)cc4CC[C@H]3[C@@H]1CC[C@@H]2O [E2, 17β-estradiol]
THR agonist classification (positive if >= 10% of activity of 100 nM T3) [1]: THR agonistic negative
Metabollic rate [3]: 44%

Cc1cc(OCC(=O)O)cc(C)c1Cc1ccc(O)c(C(C)C)c1 [GC-1, sobetirome]
THR agonist classification (positive if >= 10% of activity of 100 nM T3) [1]: THR agonistic positive
THR transcriptional activity after phase I reaction ([1]; phase I group, concentration not given, RTA with 100 nM T3 (PC) = 100%): 166.3 ± 12.0%
THR transcriptional activity after phase I+II reaction [1, 4]: 160.6 ± 8.6%
Metabolic rate (parent decreased by) after the reaction [3]: 15%

COc1c(O)cc2oc(-c3ccc(O)cc3)cc(=O)c2c1O [Hispidulin, hispidulin]
THR agonist classification (positive if >= 10% of activity of 100 nM T3) [1]: THR agonistic negative

CC12CC1(C)C(=O)N(c1cc(Cl)cc(Cl)c1)C2=O (centres unmarked) [Procymidone, procymidone]
THR agonist classification (positive if >= 10% of activity of 100 nM T3) [1]: THR agonistic negative
Metabollic rate [2]: 55%

O=C(Nc1ccc(Oc2ccc(Cl)cc2)c(Cl)c1)c1cc(I)cc(I)c1O [Rafoxanide, rafoxanide]
THR agonist classification (positive if >= 10% of activity of 100 nM T3) [1]: THR agonistic negative
Metabollic rate [3]: 51%

N[C@@H](Cc1cc(I)c(Oc2ccc(O)c(I)c2)c(I)c1)C(=O)O [T3, 3,3’,5-triiodo-L-thyronine]
Induction compared to the VC value ([1]; T3 100 nM as positive control): ≥ 4.8 fold
THR agonist classification (positive if >= 10% of activity of 100 nM T3) [1]: THR agonistic positive
Metabolic rate (parent decreased by) after the reaction [3]: 3%

N[C@@H](Cc1cc(I)c(Oc2cc(I)c(O)c(I)c2)c(I)c1)C(=O)O [T4, Levothyroxine]
THR agonist classification (positive if >= 10% of activity of 100 nM T3) [1]: THR agonistic positive
